The values that follow come from US11395833B2, “Process for the preparation and purification of the sodium salt of hyaluronic acid” (priority 2016, dated 2022).

A short description of the series: LAL test for bacterial endotoxins (Ph. Eur. 5.0, 2.6.14). The conditions noted are these: analysis of the product according to Ph. Eur. 5.0. The procedure:
LAL Test: the basis of the LAL test is the capacity of the amebocytes extracted from blood of Limulus polyphemus to gel in the presence of bacterial endotoxins from Gram-negatives, primarily responsible for the pyrogen effect. This test is carried out according to Ph. Eur. 5.0, 2.6.14.
Take sodium salt of HA [Example 1]: the “Bacterial endotoxins (LAL test)” value is 0.012 EU/mg. For the substance sodium salt of HA [Example 2], the “Bacterial endotoxins (LAL test)” value came out at 0.012 EU/mg. For the substance sodium salt of HA [Example 3], the “Bacterial endotoxins (LAL test)” value came out at 0.0075 EU/mg.
